Reference: ChEMBL document CHEMBL5653615 (J Biol Chem, 2013)

How the values were obtained:
[1] = target: Tyrosine-protein kinase Blk (Homo sapiens) (UniProt P51451); experiment: Inhibition of human BLK at 500 nM by HotSpot assay relative to control
[2] = target: Cyclin-dependent kinase 5/CDK5 activator 1 (Homo sapiens) (UniProt Q00535+Q15078); experiment: Inhibition of human CDK5/p35 at 500 nM by HotSpot assay relative to control; format: protein-complex assay
[3] = target: T1, Beta-adrenergic receptor kinase 1 (Homo sapiens) (UniProt P25098); experiment: Inhibition of human GRK2 at 500 nM by HotSpot assay relative to control
T1 sequence (whole entry): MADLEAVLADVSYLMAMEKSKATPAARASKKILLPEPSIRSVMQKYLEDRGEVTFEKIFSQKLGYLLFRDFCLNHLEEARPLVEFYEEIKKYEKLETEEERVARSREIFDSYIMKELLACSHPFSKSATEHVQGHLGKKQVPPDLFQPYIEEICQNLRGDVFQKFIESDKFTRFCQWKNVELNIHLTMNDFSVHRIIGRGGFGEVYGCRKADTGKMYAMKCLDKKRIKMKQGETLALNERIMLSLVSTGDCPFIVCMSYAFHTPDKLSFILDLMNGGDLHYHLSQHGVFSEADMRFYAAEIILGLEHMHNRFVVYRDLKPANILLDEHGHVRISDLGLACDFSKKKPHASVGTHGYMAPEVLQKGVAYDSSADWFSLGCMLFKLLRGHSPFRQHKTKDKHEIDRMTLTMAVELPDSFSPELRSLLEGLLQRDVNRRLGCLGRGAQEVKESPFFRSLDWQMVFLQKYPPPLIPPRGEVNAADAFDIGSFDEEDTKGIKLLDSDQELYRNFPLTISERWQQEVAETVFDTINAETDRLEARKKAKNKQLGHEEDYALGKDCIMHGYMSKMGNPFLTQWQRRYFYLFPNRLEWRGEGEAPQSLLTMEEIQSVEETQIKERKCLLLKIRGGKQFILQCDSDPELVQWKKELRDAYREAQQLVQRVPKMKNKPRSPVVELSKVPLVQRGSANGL

[4] = target: Mitogen-activated protein kinase 9 (Homo sapiens) (UniProt P45984); experiment: Inhibition of human JNK2 at 500 nM by HotSpot assay relative to control
[5] = target: Serine/threonine-protein kinase 16 (Homo sapiens) (UniProt O75716); experiment: Inhibition of human STK16 at 500 nM by HotSpot assay relative to control
[6] = target: Tyrosine-protein kinase BTK (Homo sapiens) (UniProt Q06187); experiment: Inhibition of human BTK at 500 nM by HotSpot assay relative to control
[7] = target: Tyrosine-protein kinase JAK1 (Homo sapiens) (UniProt P23458); experiment: Inhibition of human JAK1 at 500 nM by HotSpot assay relative to control
[8] = target: T2, TGF-beta receptor type-1 (Homo sapiens) (UniProt P36897); experiment: Inhibition of human ALK5 at 500 nM by HotSpot assay relative to control
T2 sequence (whole entry): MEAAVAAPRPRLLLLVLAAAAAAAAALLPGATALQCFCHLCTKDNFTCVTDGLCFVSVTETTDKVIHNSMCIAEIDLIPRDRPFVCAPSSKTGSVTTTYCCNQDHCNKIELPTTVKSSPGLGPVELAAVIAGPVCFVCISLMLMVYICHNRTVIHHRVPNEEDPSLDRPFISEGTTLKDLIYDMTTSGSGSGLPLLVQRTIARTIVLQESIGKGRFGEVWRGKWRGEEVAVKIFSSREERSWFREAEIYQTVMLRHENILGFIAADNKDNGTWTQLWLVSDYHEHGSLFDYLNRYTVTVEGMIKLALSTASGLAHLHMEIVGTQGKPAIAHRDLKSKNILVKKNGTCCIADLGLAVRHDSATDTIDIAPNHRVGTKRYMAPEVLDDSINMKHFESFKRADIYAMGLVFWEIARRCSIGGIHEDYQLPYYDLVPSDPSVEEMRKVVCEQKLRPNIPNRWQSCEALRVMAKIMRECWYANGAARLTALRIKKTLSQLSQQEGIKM

[9] = target: Serine/threonine-protein kinase PAK 4 (Homo sapiens) (UniProt O96013); experiment: Inhibition of human PAK4 at 500 nM by HotSpot assay relative to control
[10] = target: Ribosomal protein S6 kinase alpha-4 (Homo sapiens) (UniProt O75676); experiment: Inhibition of human RPS6KA4 at 500 nM by HotSpot assay relative to control
[11] = target: Dual specificity protein kinase CLK1 (Homo sapiens) (UniProt P49759); experiment: Inhibition of human CLK1 at 500 nM by HotSpot assay relative to control
Sequence of Dual specificity protein kinase CLK1 (Homo sapiens) (P49759 whole entry, looked up): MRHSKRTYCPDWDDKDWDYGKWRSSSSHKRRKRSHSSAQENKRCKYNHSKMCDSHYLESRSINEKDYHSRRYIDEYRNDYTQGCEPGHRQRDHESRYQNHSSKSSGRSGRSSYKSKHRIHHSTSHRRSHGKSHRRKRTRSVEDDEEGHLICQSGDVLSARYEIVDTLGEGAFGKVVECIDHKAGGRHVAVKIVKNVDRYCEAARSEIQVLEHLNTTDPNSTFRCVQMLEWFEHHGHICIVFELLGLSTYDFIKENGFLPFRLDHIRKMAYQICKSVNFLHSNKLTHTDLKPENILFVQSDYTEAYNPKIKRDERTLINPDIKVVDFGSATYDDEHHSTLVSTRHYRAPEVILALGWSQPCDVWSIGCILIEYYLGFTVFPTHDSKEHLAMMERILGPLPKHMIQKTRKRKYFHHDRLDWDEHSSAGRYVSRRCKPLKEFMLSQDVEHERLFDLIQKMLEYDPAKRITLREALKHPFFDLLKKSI

Sequence of Cyclin-dependent kinase 5/CDK5 activator 1 (Homo sapiens) (Q00535 whole entry): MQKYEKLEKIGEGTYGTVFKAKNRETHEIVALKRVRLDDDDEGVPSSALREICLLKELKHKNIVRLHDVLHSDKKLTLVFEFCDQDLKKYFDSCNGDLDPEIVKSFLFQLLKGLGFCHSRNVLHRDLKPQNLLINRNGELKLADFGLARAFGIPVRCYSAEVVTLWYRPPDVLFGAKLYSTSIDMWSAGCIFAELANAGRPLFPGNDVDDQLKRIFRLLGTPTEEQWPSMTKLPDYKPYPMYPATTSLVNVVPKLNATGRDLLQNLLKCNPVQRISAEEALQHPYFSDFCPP
Sequence of Cyclin-dependent kinase 5/CDK5 activator 1 (Homo sapiens) (Q15078 99-307 partner limits assumed): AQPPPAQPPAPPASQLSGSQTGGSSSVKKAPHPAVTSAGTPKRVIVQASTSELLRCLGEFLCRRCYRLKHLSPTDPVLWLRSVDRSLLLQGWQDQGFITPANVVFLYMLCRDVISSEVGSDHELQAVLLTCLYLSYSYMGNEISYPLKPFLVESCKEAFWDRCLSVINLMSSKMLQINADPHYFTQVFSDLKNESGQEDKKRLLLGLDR
Sequence of Serine/threonine-protein kinase PAK 4 (Homo sapiens) (O96013 whole entry, looked up): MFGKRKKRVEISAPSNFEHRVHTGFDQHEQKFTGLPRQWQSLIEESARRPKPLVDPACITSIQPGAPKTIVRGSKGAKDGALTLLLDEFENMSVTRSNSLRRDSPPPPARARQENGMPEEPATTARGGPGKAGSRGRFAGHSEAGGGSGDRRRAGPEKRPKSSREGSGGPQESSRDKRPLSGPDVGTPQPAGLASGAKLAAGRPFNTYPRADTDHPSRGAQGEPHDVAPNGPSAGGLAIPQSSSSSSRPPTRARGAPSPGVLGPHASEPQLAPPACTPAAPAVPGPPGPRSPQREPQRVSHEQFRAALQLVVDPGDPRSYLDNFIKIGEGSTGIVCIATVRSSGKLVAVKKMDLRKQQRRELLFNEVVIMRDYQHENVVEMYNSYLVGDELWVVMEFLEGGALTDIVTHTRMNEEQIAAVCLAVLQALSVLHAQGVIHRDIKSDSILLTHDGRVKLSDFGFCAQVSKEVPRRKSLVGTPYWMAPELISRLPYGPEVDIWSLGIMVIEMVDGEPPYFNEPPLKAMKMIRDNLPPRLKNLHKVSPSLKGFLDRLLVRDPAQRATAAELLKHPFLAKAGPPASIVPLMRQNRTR
Sequence of Tyrosine-protein kinase Blk (Homo sapiens) (P51451 2-505 limits assumed): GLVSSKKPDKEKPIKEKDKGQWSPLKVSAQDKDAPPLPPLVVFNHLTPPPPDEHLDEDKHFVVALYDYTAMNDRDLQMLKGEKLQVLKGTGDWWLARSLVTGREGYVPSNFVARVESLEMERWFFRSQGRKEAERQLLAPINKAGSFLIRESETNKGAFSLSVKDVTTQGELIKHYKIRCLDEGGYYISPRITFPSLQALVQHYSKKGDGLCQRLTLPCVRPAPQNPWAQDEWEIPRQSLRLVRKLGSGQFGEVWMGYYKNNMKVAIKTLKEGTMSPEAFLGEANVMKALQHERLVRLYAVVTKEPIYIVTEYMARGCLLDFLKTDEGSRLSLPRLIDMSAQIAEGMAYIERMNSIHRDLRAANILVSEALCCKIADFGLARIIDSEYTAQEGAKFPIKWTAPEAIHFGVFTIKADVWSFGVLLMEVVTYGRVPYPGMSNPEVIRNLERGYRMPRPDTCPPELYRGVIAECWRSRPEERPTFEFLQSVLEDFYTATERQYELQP
Sequence of Ribosomal protein S6 kinase alpha-4 (Homo sapiens) (O75676 whole entry, looked up): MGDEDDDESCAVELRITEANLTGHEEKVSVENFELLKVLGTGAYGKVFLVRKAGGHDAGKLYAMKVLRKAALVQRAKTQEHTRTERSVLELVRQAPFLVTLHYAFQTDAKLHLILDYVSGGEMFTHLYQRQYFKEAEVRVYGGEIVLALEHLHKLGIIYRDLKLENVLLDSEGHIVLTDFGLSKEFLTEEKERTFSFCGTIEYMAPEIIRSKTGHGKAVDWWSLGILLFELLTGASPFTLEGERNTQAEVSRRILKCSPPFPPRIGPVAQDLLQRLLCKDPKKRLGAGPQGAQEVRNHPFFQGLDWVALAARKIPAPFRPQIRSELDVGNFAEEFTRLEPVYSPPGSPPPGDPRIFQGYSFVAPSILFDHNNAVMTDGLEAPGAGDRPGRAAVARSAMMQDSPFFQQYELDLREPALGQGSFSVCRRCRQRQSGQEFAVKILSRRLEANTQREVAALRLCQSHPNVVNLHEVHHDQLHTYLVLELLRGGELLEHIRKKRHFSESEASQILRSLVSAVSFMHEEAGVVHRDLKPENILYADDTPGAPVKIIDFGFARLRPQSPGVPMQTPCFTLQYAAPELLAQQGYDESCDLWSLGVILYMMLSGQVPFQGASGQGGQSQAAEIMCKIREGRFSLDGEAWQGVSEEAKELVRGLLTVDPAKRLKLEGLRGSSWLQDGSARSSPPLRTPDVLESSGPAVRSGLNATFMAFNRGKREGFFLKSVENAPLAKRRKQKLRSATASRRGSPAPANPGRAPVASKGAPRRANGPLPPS
Sequence of Tyrosine-protein kinase BTK (Homo sapiens) (Q06187 whole entry): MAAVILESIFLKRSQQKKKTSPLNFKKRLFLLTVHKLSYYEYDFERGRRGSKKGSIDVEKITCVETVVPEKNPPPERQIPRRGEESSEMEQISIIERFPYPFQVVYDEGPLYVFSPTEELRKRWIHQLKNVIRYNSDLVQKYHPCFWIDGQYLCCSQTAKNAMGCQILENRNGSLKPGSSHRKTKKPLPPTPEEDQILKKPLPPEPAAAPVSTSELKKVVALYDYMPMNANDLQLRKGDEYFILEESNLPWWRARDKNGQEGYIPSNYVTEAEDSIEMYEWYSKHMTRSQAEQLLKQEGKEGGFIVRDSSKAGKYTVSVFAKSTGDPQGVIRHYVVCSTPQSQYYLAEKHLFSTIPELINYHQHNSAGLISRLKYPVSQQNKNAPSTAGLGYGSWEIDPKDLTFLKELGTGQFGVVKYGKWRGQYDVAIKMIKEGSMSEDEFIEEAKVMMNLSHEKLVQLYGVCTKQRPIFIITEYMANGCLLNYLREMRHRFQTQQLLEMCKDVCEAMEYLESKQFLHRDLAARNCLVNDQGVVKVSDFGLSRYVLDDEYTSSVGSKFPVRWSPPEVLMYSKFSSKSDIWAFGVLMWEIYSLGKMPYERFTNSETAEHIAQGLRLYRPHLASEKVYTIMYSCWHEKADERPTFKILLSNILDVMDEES
Sequence of Mitogen-activated protein kinase 9 (Homo sapiens) (P45984 whole entry, looked up): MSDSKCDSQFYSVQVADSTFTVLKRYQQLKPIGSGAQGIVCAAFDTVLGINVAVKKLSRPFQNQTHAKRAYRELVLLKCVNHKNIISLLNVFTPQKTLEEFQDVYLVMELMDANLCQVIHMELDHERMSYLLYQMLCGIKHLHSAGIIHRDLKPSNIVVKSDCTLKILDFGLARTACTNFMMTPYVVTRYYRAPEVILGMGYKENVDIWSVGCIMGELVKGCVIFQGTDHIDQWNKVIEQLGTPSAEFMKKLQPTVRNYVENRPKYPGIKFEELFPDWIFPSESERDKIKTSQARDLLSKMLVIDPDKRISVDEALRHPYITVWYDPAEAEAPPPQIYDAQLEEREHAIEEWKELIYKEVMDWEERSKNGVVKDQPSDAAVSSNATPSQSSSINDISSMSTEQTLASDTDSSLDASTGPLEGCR
Sequence of Serine/threonine-protein kinase 16 (Homo sapiens) (O75716 whole entry): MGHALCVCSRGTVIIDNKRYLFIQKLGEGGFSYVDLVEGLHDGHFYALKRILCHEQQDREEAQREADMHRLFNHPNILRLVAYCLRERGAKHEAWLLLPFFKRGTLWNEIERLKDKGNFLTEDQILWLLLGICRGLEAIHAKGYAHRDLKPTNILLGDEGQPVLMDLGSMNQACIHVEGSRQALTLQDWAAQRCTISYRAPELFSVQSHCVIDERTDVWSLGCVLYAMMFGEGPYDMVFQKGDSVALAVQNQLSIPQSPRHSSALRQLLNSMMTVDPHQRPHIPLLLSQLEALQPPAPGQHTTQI

| SMILES | inhibition [1] | inhibition [2] | inhibition [3] | inhibition [4] | inhibition [5] | inhibition [6] | inhibition [7] | inhibition [8] | inhibition [9] | inhibition [10] | inhibition [11] |
| --- | --- | --- | --- | --- | --- | --- | --- | --- | --- | --- | --- |
| Nc1n[nH]c2nnc(-c3c(-c4ccccc4)nn4ccccc34)cc12 | 1.92% | -4.88% | 4.99% | 51.6% | -7.84% | 6.42% | -3.59% | 3.87% | -1.44% | 5.31% | -8.27% |
| Oc1n[nH]c2nnc(-c3c(-c4ccccc4)nn4ccccc34)cc12 | 2.09% | -2.59% | 5.01% | 11.7% | 1.39% | 9.23% | -1.98% | 4.23% | -0.93% | 1.99% | -5.95% |
